Consider 1 compound from patent US20150025119A1, “Release Application for Antihypertensive Agent on Plant Fiber Bundle” (National Tsing Hua University, priority 2013, published 2015).

This data set is described as follows: Release of Valsartan from plant fiber bundle base (toothpick) in physiological saline, fluorescence analysis. It counts as physicochemical. To be noted: toothpick impregnated at 10 mg/mL, released in physiological saline for 1, 3, 5, 10 minutes, 38 repetitions, FIG. 4. From the text: Firstly, in step 100, antihypertensive agents are fixed onto a plant fiber bundle base such as a toothpick, i.e., solid antihypertensive agents attached onto the plant fiber bundle base. In this step, the plant fiber bundle base may be impregnated in liquid antihypertensive agents. Because of the physical adsorption properties of plant fiber bundles, the composition of the liquid antihypertensive agents is gradually adsorbed into the plant fiber bundles until the amount of antihypertensive agents on plant fiber bundle base reaches a saturated condition. In one embodiment, the concentration of antihypertensive agents (e.g., Valsartan) in liquid form is 2.5, 5, 8, 10, 20 mg/mL, respectively. Then, the plant fiber bundle base is removed. […] Next, in step 102, fluorescence analysis of the released anti-hypertensive agents is performed. […] Based on this feature, an optical instrument is used for fluorescence analysis of different concentrations of Valsartan affixed to toothpicks. Fluorescence analysis of different concentrations of Valsartan was performed using ImageJ image analysis software. […] An optical instrument is used to collect fluorescence data of Valsartan after release in physiological saline in 38 repetitions of the experiment. […]

Consider `CCCCC(=O)N(Cc1ccc(-c2ccccc2-c2nnn[nH]2)cc1)[C@H](C(=O)O)C(C)C` [Valsartan], for which the “proportion of release (release percentage) of Valsartan over time” value is recorded as “increases until the saturation level is reached”.
